Experiments:
[1] = system: rat; conditions: Developmental neurotoxicity study; long evans; Inhalation; Whole-Body; dose end: 100 PND; group: cannot be grouped; developmental / developmental malformation / bone / incomplete ossification + developmental / developmental malformation / ovary / …
[2] = system: mink; conditions: Multigenerational reproductive toxicity study, ranch wild brown, Oral, Feed, dose end: 1 generation
[3] = system: rat; conditions: Carcinogenicity, Osborne-Mendel, Oral, Feed, dose end: 80 week, group: systemic
[4] = system: rat; conditions: Developmental neurotoxicity study, sprague dawley, Oral, [Not Specified], dose end: 155 PND, group: cannot be grouped
[5] = system: mouse; conditions: Carcinogenicity; b6c3f1; Oral; Feed; dose end: 80 week; group: systemic; systemic / pathology microscopic / liver / hepatocellular carcinoma
[6] = system: rat; conditions: Developmental neurotoxicity study; long evans; Injection; Intraperitoneal; dose end: 80 PND; group: cannot be grouped; systemic / in life observation / body weight / offspring (pup) weight + systemic / in life observation / clinical signs / abnormal movements…
[7] = group: offspring, developmental / offspring survival late / [other] / [other] + systemic / in life observation / body weight / offspring (pup) weight
[8] = group: offspring, systemic / in life observation / body weight / offspring (pup) weight
[9] = group: parental, systemic / in life observation / body weight / body weight + systemic / in life observation / clinical signs / [other] + systemic / in life …
[10] = group: reproductive, reproductive / reproductive performance / resorptions / resorptions + reproductive / offspring survival early / dead fetuses / dead fetuses
[11] = systemic / in life observation / clinical signs / palpable mass + systemic / in life observation / clinical signs / vaginal discharge
[12] = systemic / in life observation / clinical signs / palpable mass + systemic / in life observation / clinical signs / vaginal discharge + …
[13] = systemic / clinical chemistry / [other] / [other] + systemic / clinical chemistry / chloride / chloride + systemic / in life observation / …
[14] = systemic / clinical chemistry / chloride / chloride + systemic / in life observation / clinical signs / urination

## ClC=C(Cl)Cl [Trichloroethylene]
[1]
  LEL: 1800 ppm
  LOAEL: > 1800 ppm
  NEL: < 1800 ppm
  NOAEL: ≥ 1800 ppm

## ClC1=C(Cl)C2(Cl)C3C(Cl)C=CC3C1(Cl)C2(Cl)Cl (configuration not stated) [Heptachlor]
[2]; [7]
  LOAEL: > 25 mg/kg/day
  NOAEL: ≥ 25 mg/kg/day
[2]; [8]
  LEL: 6.25 mg/kg/day
  NEL: < 6.25 mg/kg/day
[2]; [9]
  LEL: 12.5 mg/kg/day
  LOAEL: > 25 mg/kg/day
  NEL: 6.25 mg/kg/day
  NOAEL: ≥ 25 mg/kg/day
[2]; group: reproductive, reproductive / reproductive performance / resorptions / resorptions
  NEL: 6.25 mg/kg/day
[2]; [10]
  LEL: 12.5 mg/kg/day
  LOAEL: > 25 mg/kg/day
  NOAEL: ≥ 25 mg/kg/day
[3]; [11]
  LEL: 1.28 mg/kg/day
  NEL: < 1.28 mg/kg/day
[3]; [12]
  LOAEL: > 2.56 mg/kg/day
  NOAEL: ≥ 2.56 mg/kg/day
[4]; [13]
  LOAEL: > 3 mg/kg/day
  NOAEL: ≥ 3 mg/kg/day
[4]; [14]
  LEL: 0.03 mg/kg/day
  NEL: < 0.03 mg/kg/day
[5]
  LEL: 2.07 mg/kg/day
  LOAEL: > 2.07 mg/kg/day
  NEL: 0.915 mg/kg/day
  NOAEL: ≥ 2.07 mg/kg/day

## N#CCCNCCC#N [3,3'-Iminobispropanenitrile]
[6]
  LEL: 300 mg/kg/day
  LOAEL: > 300 mg/kg/day
  NEL: 150 mg/kg/day
  NOAEL: ≥ 300 mg/kg/day

— EPA's ToxRefDB 2
